Experimental findings from patent publication US20050112163A1, “PEST CONTROLLER AMD METHOD FOR CONTROLLING PESTS THEREWITH” (priority 2002, published 2005) are described below.

The nature of this series: Vapor pressure by Donovan method. It counts as physicochemical. To be noted: at 25° C. by Donovan method. The procedure:
Donovan method is a method reported by a person in New method for estimating vapor pressure by the use of gas chromatography: Journal of Chromatography A. 749, pp. 123-129 (1996).
Test pest controllers (a) and (b) were made by the pest controller 1 shown in FIG. 2 with chemical substance 22 containing compound (A) (2,3,5,6-tetrafluoro-4-methoxymethylbenzyl 3-(1-propenyl)-2,2-dimethylcyclopropanecarboxylate, the vapor pressure at 25° C. by Donovan method: 1.4×10^−5 mmHg) as an active ingredient.

`CC=CC1C(C(=O)OCc2c(F)c(F)c(COC)c(F)c2F)C1(C)C` (stereo not shown) [compound (A), 2,3,5,6-tetrafluoro-4-methoxymethylbenzyl 3-(1-propenyl)-2,2-dimethylcyclopropanecarboxylate]: the vapor pressure was 1.4×10^−5 mmHg.
